The subject of series [1] is dysplastic airway lesions. The following applies: cited from earlier work.
Series [2] concerns PI3K. The series can be described thus: PI3K kinase assay (PIP3 production) in insulin-stimulated HEK293 cells. Format: cell-based. The following applies: HEK293 (human embryonic kidney cell line), insulin-activated, varying doses. The protocol: (§1) Insulin was used to activate the PI3K pathway in three different cell lines: (FIG. 5A) BEAS-2B (bronchial airway cell line), (FIG. 5B) BT549 (breast cancer cell line), and (FIG. 5C) HEK293 (human embryonic kidney cell line). The cell lines were then treated with varying doses of myo-inositol and LY-294002. PIP3 levels were measured to quantify the activation levels of the PI3K pathway (y-axis). […] Replication of these experiments produced similar results.
(§2) 80% confluent BEAS-2B, BT549, or HEK293 cells were starved in BEBM, RPMI, or DMEM medium, respectively (Clonetics, GibcoBRL). This media contained either 0.1% added supplements for the BEAS-2B cells or 0.1% fetal bovine serum for BT549 and HEK293 cells for 24 hrs. […] The production of PIP3 was evaluated by autoradiography and quantified by densitometry analysis and scintillation analysis. […]
(§3) A reduction in PI3K activity in patients that responded to myo-inositol with a regression of dysplasia in their airway reinforces the association between elevated PI3K activity levels and the presence of pre-neoplastic airway lesions. […] PI3K activity, as measured by PIP3 levels, was then quantified using a standard kinase assay protocol. For this experiment, three different cell lines were analyzed in replicate: BEAS-2B (airway), BT549 (breast cancer) and HEK293 (embryonic kidney). […]

Another series has as its system PI3K pathway. The series can be described thus: GSEA of PI3K gene sets in cytologically normal airway epithelium before versus after myo-inositol treatment. Type of series: in vivo, human. The protocol: Cytologically normal airway epithelial samples from patients with dysplastic airway lesions at the University of British Columbia were collected before and after 2-3 months of treatment with myo-inositol (n=20, 10 patients with two samples each), as well as six additional samples collected pre-treatment with myo-inositol as part of a dose response study. In that study, bronchial brushing was performed in three separate 6-8th generation bronchial airways using a 1.7 mm diameter bronchial cytology brush (Hobbs Medical, Stafford Springs, Conn.). The brush was retrieved and immediately immersed in RNALater and kept frozen at −80° C. until assayed. Epithelial cell content of representative bronchial brushing samples has been quantitated by cytocentrifugation (ThermoShandon Cytospin, Pittsburgh, Pa.) of the cell pellet and staining with a cytokeratin antibody (Signet, Dedham Mass.). The cells in the bronchial brush contained >90% bronchial epithelial cells. […]
Gene Set Enrichment Analysis was calculated using GSEA v2. […] Genes were ranked using the following linear model (as calculated in R): Y=β0+β1+β2+b+ε Where Y is the expression of a gene, β0 is the intercept, β1 measures lung cancer risk (whether the sample has dysplasia or not), β2 is the cumulative cigarette smoke exposure for each person (pack-years), b is a random effect correcting for batch differences, and ε is the error term. […]

Series [3] deals with PI3K. The series can be described thus: PI3K kinase assay (PIP3 production) in insulin-stimulated BT549 cells. Format: cell-based. The following applies: BT549 (breast cancer cell line), insulin-activated, varying doses. The protocol:
as §1, §2, §3

The subject of series [4] is PI3K. The series can be described thus: PI3K kinase assay (PIP3 production) in insulin-stimulated BEAS-2B cells. Type of series: cell-based. The conditions noted are these: BEAS-2B (bronchial airway cell line), insulin-activated, varying doses. The protocol:
as §1, §2, §3

“Also recorded” adds a separate entry of the source.

For `O[C@H]1[C@H](O)[C@@H](O)[C@H](O)[C@@H](O)[C@H]1O` [myo-inositol], the “rate of dysplastic regression” value in series [1] (oral, 2-3 months, smokers with moderate-severe dysplasia, versus placebo-treated control patients) was “significantly increase the rate of dysplastic regression”. Moreover, in series [1] (taken orally), the side effects result is “very minor side effects”. The “PI3K activity, as measured by PIP3 levels” value in the series on PI3K [2], in the series with PI3K [3] and in the series with PI3K [4] was “inhibited PI3K activity levels in a dose-dependent manner; also recorded: drop in PIP3 levels” each time. The “change in expression of PI3K gene sets (GSEA), before versus after treatment” value in the series on PI3K pathway (subjects that did not respond to treatment (n=3, 6 samples)) was “no change in the levels of the PI3K gene sets”; with PI3K pathway (subjects who did respond to treatment (n=6, 12 samples), p=0.04, FDR Q=0.177), “increased expression of genes in the PI3K Down gene set”.

These data come from patent US10570454B2, “Methods of identifying individuals at increased risk of lung cancer” (Trustees of Boston University, priority 2007, dated 2020).
